Assay results taken from paper PMC5046085, “Systemic Inhibition of CREB is Well-tolerated in vivo” (Scientific Reports, 2016).

What was measured:
Gal4-c-Myb(241–325) = target: T1, Gal4-c-Myb(241–325) (Homo sapiens, UniProt P10242); experiment: Gal4-c-Myb transcription reporter assay in HEK293T cells; assay type: cell-based; details: pG5B reporter, increasing concentrations, 5–7 h
T1 construct: Gal4-c-Myb (241–325) was a generous gift of Dr. Anders Näär; expressed in transfected cells; host or cells: HEK293T
Method: (§1) In these transcription reporter assays, HEK293T cells were transfected with Gal4-fusions along with a Gal4-responsive luciferase reporter or SRF-responsive luciferase (SRE-Luc) reporter. For Gal4-TEAD4, coactivator YAP1 was also included for transfection to enhance its transcription activity. Then the cells were treated with increasing concentrations of 666-15. […] (Fig. 2D).
(§2) Figure 2 Selectivity of 666-15 against different transcription factors. […] HEK 293T cells were transfected with Gal4-MLL/pG5B (A) Gal4-c-Myb/pG5B (B) Gal4-TEAD4/YAP1/pG5B (C) or SRE-Luc (D). Then the transfected cells were treated with increasing concentrations of 666-15 for 5–7 h. The luciferase activity was then measured, normalized to the protein content and expressed as relative luciferase unit (RLuc)/μg protein.
(§3) 666-15 was described before. […]
(§4) HEK293T cells (ATCC) were routinely cultured in Dulbecco’s modified Eagle medium (DMEM, Life Technologies) supplemented with 10% fetal bovine serum (Hyclone) and non-essential amino acids (Life Technologies). […] The luciferase activity was measured by a tube luminometer (Berthold) using luciferase assay reagent (Promega). The protein concentration of the cell lysates in each well was determined using a Protein Assay Dye Reagent (Biorad). The luciferase activity in each well was normalized to the protein content and expressed as RLuc (relative luciferase unit)/μg protein.

[1] = In vivo pharmacokinetics, plasma concentration by LC-MS/MS; details: female, mouse, single dose 10 mg/kg IP, C57BL/6 mice, read-out: plasma concentration 24 h after drug administration
Method: Then the blood was collected at different time points and the plasma drug concentration was measured using tandem mass spectroscopy coupled with liquid chromatography (LC/MS-MS) methods.
Blood was collected at 0.083, 0.25, 0.5, 1, 2, 4, 8, 24 h post drug administration. Blood was collected from each mouse from the submandibular vein (3 time points/mouse). The blood was collected into the EDTA-K2 tubes, and centrifuged at 4,000× rpm for 10 min at 4 °C. The plasma was removed and stored at −80 °C until further analysis. The quantitative LC-MS/MS analyses were conducted using an Agilent 1200 HPLC system coupled to an API 4000 mass spectrometer equipped with an API electrospray ionization (ESI) source. The mobile phases used are a linear gradient of mobile phase A (10 mM ammonium acetate in H2O) and mobile phase B (10 mM ammonium acetate in 90% MeOH). The column used was Xtimate C18 2.1 × 30 mm (3 μm) with a flow rate of 0.6 mL/min. The mass spectrometer was operated in ESI positive ion mode and detection of the drugs was performed by multiple reaction monitoring (MRM).

Gal4-MLL(2840–2858) = test system: T2, Gal4-MLL(2840–2858); experiment: Gal4-MLL transcription reporter assay in HEK293T cells; assay type: cell-based, human; details: pG5B reporter, increasing concentrations, 5–7 h
T2 construct: human MLL (2840–2858) ([…]); expressed in transfected cells; host or cells: HEK293T
Method: as §1, §2, §3, §4

c-Myb = test system: c-Myb; set-up: method as in PMID 15585582, PMID 25740244; details: cited from earlier work

T1 sequence (P10242 with tags, fused parts or gaps limits assumed): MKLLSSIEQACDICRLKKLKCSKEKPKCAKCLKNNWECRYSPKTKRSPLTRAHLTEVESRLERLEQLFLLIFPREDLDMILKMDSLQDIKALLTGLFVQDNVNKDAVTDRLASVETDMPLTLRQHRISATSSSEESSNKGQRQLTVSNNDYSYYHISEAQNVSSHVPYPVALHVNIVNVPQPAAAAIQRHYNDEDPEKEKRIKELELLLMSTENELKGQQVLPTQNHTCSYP
T2 sequence (P04386 with tags, fused parts or gaps): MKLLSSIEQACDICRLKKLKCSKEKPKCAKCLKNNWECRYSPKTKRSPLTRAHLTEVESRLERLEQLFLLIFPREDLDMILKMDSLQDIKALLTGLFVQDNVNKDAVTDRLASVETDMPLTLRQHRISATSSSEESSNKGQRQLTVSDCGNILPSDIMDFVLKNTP

Row | Compound | inhibition of Gal4-c-Myb-mediated transcription (Gal4-c-Myb(241–325)) | concentration at 24 h [1] [nM] | inhibition of Gal4-MLL-mediated transcription (Gal4-MLL(2840–2858)) | effect on c-Myb's activity (c-Myb)
1 | NCCCOc1cc2ccccc2cc1C(=O)NCCOc1cc2ccccc2cc1C(=O)Nc1ccc(Cl)cc1O [666-15] | no inhibition | 50 to 100 | no inhibition | –
2 | O=C(Nc1ccc(Cl)cc1)c1cc2ccccc2cc1OP(=O)(O)O [naphthol AS-E phosphate] | – | – | – | inhibits c-Myb’s activity
